IC50 data for one compound are collected here from publication PMC11682119 (Scientific Reports, 2024).

The assay has as its target T1, hALDH2 (Homo sapiens, UniProt P05091).
T1 sequence (P05091 18-517): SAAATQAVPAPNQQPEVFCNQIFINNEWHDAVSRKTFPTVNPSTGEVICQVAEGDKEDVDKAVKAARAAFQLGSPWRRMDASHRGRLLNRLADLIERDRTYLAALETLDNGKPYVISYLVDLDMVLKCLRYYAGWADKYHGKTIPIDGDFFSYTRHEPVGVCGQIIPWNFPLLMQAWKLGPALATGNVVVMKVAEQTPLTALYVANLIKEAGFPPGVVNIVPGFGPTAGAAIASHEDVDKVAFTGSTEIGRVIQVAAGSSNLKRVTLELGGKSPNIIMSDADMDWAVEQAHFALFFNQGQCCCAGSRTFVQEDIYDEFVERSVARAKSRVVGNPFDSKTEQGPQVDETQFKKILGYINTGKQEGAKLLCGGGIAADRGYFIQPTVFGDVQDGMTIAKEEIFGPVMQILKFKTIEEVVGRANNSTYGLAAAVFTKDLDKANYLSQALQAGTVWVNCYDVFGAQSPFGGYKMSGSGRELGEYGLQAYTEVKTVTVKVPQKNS
In kind it is biochemical.

Structures are written as SMILES.

For `CN(C)C(=S)SSC(=S)N(C)C` [thiram], it took 1600 nM to reach half-maximal inhibition (IC50).
